Each molecule was assayed on hepcidin secretion from HepG2 cells (assay: hepcidin secretion from IL-6 inflamed HepG2 cells, ELISA). Conditions: IL-6 (10 ng/mL), inhibitors at 10 ng/mL, FIG. 8.
Type: cell-based
Protocol: HepG2 cells were cultured with controls not treated with additional treatments. The remaining cells were all treated to induce inflammation IL-6 (10 ng/mL). Inhibitors were added at 10 ng/mL to block furin and prevent the cleavage of prohepcidin to hepcidin. Hepcidin secreted into the growth media was measured by ELISA.
In the case of COC(=O)N[C@H](C(=O)N[C@@H](Cc1ccccc1)[C@@H](O)CN(Cc1ccc(-c2ccccn2)cc1)NC(=O)[C@@H](NC(=O)OC)C(C)(C)C)C(C)(C)C [Atazanvir, methyl N-[(1S)-1-{[(2S,3S)-3-hydroxy-4-[(2S)-2-[(methoxycarbonyl)amino]-3,3-dimethyl-N′-{[4-(pyridin-2-yl)phenyl]methyl}butanehydrazido]-1-phenylbutan-2-yl]carbamoyl}-2,2-dimethylpropyl]carbamate], the “inhibition of hepcidin secretion” value is reported as “showed inhibition of hepcidin secretion”.
With Cc1cccc(C)c1OCC(=O)N[C@@H](Cc1ccccc1)[C@@H](O)C[C@H](Cc1ccccc1)NC(=O)[C@H](C(C)C)N1CCCNC1=O [Lopinavir, (2S)—N-[(2S,4S,5S)-5-[2-(2,6-dimethylphenoxy)acetamido]-4-hydroxy-1,6-diphenylhexan-2-yl]-3-methyl-2-(2-oxo-1,3-diazinan-1-yl)butanamide] the “inhibition of hepcidin secretion” value was “showed inhibition of hepcidin secretion”.
With CC(C)CN(C[C@@H](OP(=O)(O)O)[C@H](Cc1ccccc1)NC(=O)O[C@H]1CCOC1)S(=O)(=O)c1ccc(N)cc1 [fosamprenavir] the “inhibition of hepcidin secretion” value was “showed inhibition of hepcidin secretion”.

Each molecule was assayed on hepcidin secretion from HepG2 cells (assay: hepcidin secretion from IL-6 and BMP-9 inflamed HepG2 cells, Mass Spectrometry). Conditions: IL-6 and BMP-9 (10 ng/mL each), inhibitors at 10 micromolar, FIG. 9.
Type: cell-based
Protocol: HepG2 cells were cultured with controls not treated with additional treatments. The remaining cells were all treated to induce inflammation IL-6 and BMP-9 (both cytokines were dosed at 10 ng/mL). Inhibitors were added at 10 micromolar to block furin and prevent the cleavage of prohepcidin to hepcidin. Hepcidin secreted into the growth media was measured by Mass Spectrometry.
In the case of CC(C)(C)NC(=O)[C@@H]1CN(Cc2cccnc2)CCN1C[C@@H](O)C[C@@H](Cc1ccccc1)C(=O)N[C@H]1c2ccccc2C[C@H]1O [indinavir, (2S)-1-[(2S,4R)-4-benzyl-2-hydroxy-4-{[(1S,2R)-2-hydroxy-2,3-dihydro-1Hinden-1-yl]carbamoyl}butyl]-N-tert-butyl-4-(pyridin-3-ylmethyl)piperazine-2-carboxamide], the “inhibition of hepcidin secretion” value is reported as “more potent response”.
For CC(C)c1nc(CN(C)C(=O)N[C@H](C(=O)N[C@@H](Cc2ccccc2)C[C@H](O)[C@H](Cc2ccccc2)NC(=O)OCc2cncs2)C(C)C)cs1 [Ritonavir], the “inhibition of hepcidin secretion” value was “small inhibitory effect”.

The molecules below were run against furin (Homo sapiens, UniProt P09958) (assay: furin fluorescence assay / enzyme assays with purified furin). Conditions: in vitro fluorescence assay; 55, 110 and 220 micromolar doses; FIG. 7.
Chain of furin (P09958 108-794, species assumed): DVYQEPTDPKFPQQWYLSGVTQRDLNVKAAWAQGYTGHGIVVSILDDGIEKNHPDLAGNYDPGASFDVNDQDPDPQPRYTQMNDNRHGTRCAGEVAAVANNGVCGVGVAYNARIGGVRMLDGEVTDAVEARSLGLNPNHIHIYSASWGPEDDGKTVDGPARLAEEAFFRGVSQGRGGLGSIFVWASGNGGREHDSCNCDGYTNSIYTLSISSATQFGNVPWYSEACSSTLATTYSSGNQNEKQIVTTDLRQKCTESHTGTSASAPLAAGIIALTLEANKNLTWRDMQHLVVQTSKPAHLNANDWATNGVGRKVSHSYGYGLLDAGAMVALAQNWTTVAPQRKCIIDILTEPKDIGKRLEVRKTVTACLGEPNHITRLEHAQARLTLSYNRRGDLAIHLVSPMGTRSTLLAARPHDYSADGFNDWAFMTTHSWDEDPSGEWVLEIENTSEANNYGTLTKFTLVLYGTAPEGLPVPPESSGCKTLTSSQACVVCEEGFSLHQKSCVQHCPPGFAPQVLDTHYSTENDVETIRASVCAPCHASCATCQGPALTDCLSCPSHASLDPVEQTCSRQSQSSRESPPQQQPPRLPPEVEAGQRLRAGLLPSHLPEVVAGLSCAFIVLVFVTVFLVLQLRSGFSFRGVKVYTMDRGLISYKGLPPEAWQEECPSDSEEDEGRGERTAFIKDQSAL
Cc1c(O)cccc1C(=O)N[C@@H](CSc1ccccc1)[C@H](O)CN1C[C@H]2CCCC[C@H]2C[C@H]1C(=O)NC(C)(C)C [Nelfinavir, (3S,4aS,8aS)—N-tert-butyl-2-[(2R,3R)-2-hydroxy-3-[(3-hydroxy-2-methylphenyl)formamido]-4-(phenylsulfanyl)butyl]-decahydroisoquinoline-3-carboxamide] was tested, and the furin inhibition was “most potent furin inhibition”.
For CC(C)CN(C[C@@H](O)[C@H](Cc1ccccc1)NC(=O)O[C@H]1CO[C@H]2OCC[C@H]21)S(=O)(=O)c1ccc(N)cc1 [Darunavir, [(1R,5S,6R)-2,8-dioxabicyclo[3.3.0]oct-6-yl] N-[(2S,3R)-4-[(4-aminophenyl)sulfonyl-(2-methylpropyl)amino]-3-hydroxy-1-phenyl-butan-2-yl]carbamate], the furin inhibition was “most potent furin inhibition”.
In the case of CC(C)(C)NC(=O)[C@@H]1CC2CCCCC2CN1C[C@@H](O)[C@H](Cc1ccccc1)NC(=O)[C@H](CC(N)=O)NC(=O)c1ccc2ccccc2n1 (stereo partly drawn) [Saquinavir, (2S)—N-[(2S,3R)-4-[(3S)-3-(tert-butylcarbamoyl)-decahydroisoquinolin-2-yl]-3-hydroxy-1-phenylbutan-2-yl]-2-(quinolin-2-yl-formamido)butanediamide], the furin inhibition is reported as “very weak dose dependent inhibition of furin”.
With CC(C)c1nc(CN(C)C(=O)N[C@H](C(=O)N[C@@H](Cc2ccccc2)C[C@H](O)[C@H](Cc2ccccc2)NC(=O)OCc2cncs2)C(C)C)cs1 [Ritonavir] the furin inhibition was “most potent furin inhibition”.

— patent publication US12419884B2, “Compositions and methods for treating iron overload” (BRIGHAM YOUNG UNIVERSITY, priority 2018, dated 2025)
